# In patent US20140294854A1, “TARGET DIRECTED TO ADIPOCYTES, METHODS AND ASSAYS FOR TREATMENT OF OBESITY” (priority 2011, published 2014):
# Residues, ends and D or L forms follow the SMILES beside them. *: point of attachment. Cbz = O=C(OCc1ccccc1)*
# Legend:
# ATGL = ATGL degradation in WAT fat fragments, anti-ATGL immunoblot; format: cell-based, mouse; conditions: for ATGL concentrations on co-treatment with cycloheximide: B6 ob/ob fat co-treated with cycloheximide and the inhibitor
# Experimental: FIGS. 5A-5C. Regulation of ATGL expression through degradation pathways. (5A) ATGL mRNA level in WAT was determined by RT-qPCR (n=6). (5B) WAT fragments of BALB/c and B6 ob/ob mice were incubated for 5 hours with cycloheximide (CHX) and WAT protein lysates were immunoblotted using anti-ATGL to follow degradation rates of ATGL. (5C) B6 ob/ob WAT fragments were treated with MG132 (MG, proteasome inhibitor) and chloroquine (CQ, lysosome inhibitor). Protein extracts were analyzed by Western blot. Densitometry analysis was performed (5B,5C) and data are expressed as average ±SEM (n=6). Unpaired t-tests were performed, *P<0.05.
# Thus, BALB/c ob/ob fat has long lived ATGL whereas C57BL/6 ob/ob fat has ATGL that is degraded within several hours. […] Thus, ATGL appears to be degraded by both the lysosomal and proteasomal pathways.
# HSL = biological target: T1, HSL (Mus musculus, UniProt P54310); test: Free fatty acid release (lipolysis) from adipose tissue explants with the HSL inhibitor; format: cell-based
# T1 construct: freshly dissected adipose tissue explants from BALB/c or B6 ob/ob inguinal fat pad; from tissue; host or cells: inguinal fat pad (white adipose tissue) explants of BALB/c and C57BL/6J ob/ob (Agrp-/-) mice
# T1 sequence (P54310 1-759): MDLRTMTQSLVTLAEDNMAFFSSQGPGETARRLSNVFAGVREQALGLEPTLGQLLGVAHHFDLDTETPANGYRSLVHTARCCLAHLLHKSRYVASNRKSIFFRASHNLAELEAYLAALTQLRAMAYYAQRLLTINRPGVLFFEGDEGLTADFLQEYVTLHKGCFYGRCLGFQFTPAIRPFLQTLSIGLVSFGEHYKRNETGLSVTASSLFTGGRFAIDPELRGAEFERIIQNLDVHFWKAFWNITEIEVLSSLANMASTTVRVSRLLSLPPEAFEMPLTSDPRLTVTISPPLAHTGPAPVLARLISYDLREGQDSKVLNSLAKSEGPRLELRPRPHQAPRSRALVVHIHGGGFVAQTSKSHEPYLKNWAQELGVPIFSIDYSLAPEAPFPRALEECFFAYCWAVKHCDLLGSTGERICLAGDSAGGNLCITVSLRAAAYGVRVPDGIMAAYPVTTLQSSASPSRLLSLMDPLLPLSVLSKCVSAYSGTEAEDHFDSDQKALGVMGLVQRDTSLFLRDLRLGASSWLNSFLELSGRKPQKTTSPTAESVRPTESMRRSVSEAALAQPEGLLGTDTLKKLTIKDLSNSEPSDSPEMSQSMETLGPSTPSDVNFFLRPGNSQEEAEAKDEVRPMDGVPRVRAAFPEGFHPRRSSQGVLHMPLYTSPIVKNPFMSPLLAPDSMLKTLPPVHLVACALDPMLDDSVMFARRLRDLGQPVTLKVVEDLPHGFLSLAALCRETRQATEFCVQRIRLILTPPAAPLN
# Text: Free fatty acids (FFA) release from adipose tissue explants was further measured in presence or not of the HSL inhibitor CAY 10499. […] FFA release was compared from freshly dissected adipose tissue explants from BALB/c or B6 ob/ob inguinal fat pad. It was observed that FFA production was increased in explants from BALB/c relative to B6 ob/ob mice when HSL activity is inhibited by CAY10499. The same difference between BALB and B6 lipolysis (Δ^−CAY=[…] versus Δ^+CAY=397.1±8.1, P=0.31) without the HSL inhibitor (i.e. HSL+ATGL activity) or with CAY10499 (i.e. ATGL activity), respectively. […] Of note, the increased ATGL activity is greater than the increase in ATGL protein content in adipose tissue. This may be due to the concomitant increase of CGI-58 expression that is known to enhance ATGL lipolytic activity.
structure (smiles),measurement,setting,value
CC(C)C[C@@H](C=O)NC(=O)[C@H](CC(C)C)NC(=O)[C@H](CC(C)C)NC(=O)OCc1ccccc1 [MG-132] (Cbz-Leu-Leu-Leu-aldehyde),ATGL concentrations on co-treatment with cycloheximide,ATGL,ATGL concentrations persisted
CCN(CC)CCCC(C)Nc1ccnc2cc(Cl)ccc12 (stereo not drawn) [chloroquine],ATGL concentrations on co-treatment with cycloheximide,ATGL,ATGL concentrations persisted
C[C@@H]1C[C@@H]([C@H](O)CC2CC(=O)NC(=O)C2)C(=O)[C@@H](C)C1 [cycloheximide],ATGL concentrations after cycloheximide treatment,"ATGL; fat fragments from B6 ob/ob mice, incubated 5 hours",dramatic reduction in ATGL concentrations
same,ATGL amounts after cycloheximide treatment,"ATGL; fat fragments from BALB/c ob/ob mice, incubated 5 hours",no alteration in ATGL amounts
COc1nn(-c2ccc(NC(=O)OCc3ccccc3)c(C)c2)c(=O)o1 [CAY10499],"Lipolysis induced with selective β3AR agonist CL316,243",HSL; in presence of 100 μM CAY10499,blunted
same,"Difference between BALB and B6 lipolysis (Δ+CAY), FFA release","HSL; inguinal fat pad explants of BALB/c vs B6 ob/ob with CAY10499 (i.e. ATGL activity), P=0.31 versus without inhibitor",397.1±8.1
